Results taken from PubChem BioAssay (NCI).
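Growth conditions: 96-well plates. Treatment: test compound, 48 hours, 5 concentrations. Analysis: linear interpolation between bracketing concentrations; unreached endpoints set to highest concentration. Definition used: TGI = concentration required for complete inhibition of growth.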

What was measured:
Assay in all cases: inhibition of tumour cell growth, NCI panel, 48 h
OVCAR-4 ovarian = system: OVCAR-4 ovarian
M19-MEL melanoma = system: M19-MEL melanoma
HCT-15 colon = system: HCT-15 colon
LXFL 529 NSCLC = system: LXFL 529 NSCLC
KM20L2 colon = system: KM20L2 colon
DMS 114 small cell lung = system: DMS 114 small cell lung
DLD-1 colon = system: DLD-1 colon
SNB-78 CNS = system: SNB-78 CNS
DMS 273 small cell lung = system: DMS 273 small cell lung
XF 498 CNS = system: XF 498 CNS
A498 renal = system: A498 renal
HOP-18 NSCLC = system: HOP-18 NSCLC
RXF-631 renal = system: RXF-631 renal

SMILES	TGI (OVCAR-4 ovarian) [µM]	TGI (M19-MEL melanoma) [µM]	TGI (HCT-15 colon) [µM]	TGI (LXFL 529 NSCLC) [µM]	TGI (KM20L2 colon) [µM]	TGI (DMS 114 small cell lung) [µM]	TGI (DLD-1 colon) [µM]	TGI (SNB-78 CNS) [µM]	TGI (DMS 273 small cell lung) [µM]	TGI (XF 498 CNS) [µM]	TGI (A498 renal) [µM]	TGI (HOP-18 NSCLC) [µM]	TGI (RXF-631 renal) [µM]
CCCOC(=O)C1CCC(=O)N1C(=O)C(C)Cl (stereo not given)	> 100	> 100	> 100	> 100	> 100	> 100	> 100	> 100	> 100	> 100	> 100	> 100	–
CCCCCCCc1cc(OC(=O)c2c(C)cc(OC)cc2O)cc(O)c1C(=O)O	78.2	50.7	–	34	40.3	–	34.7	> 100	87.9	–	38	–	63.9
CCOc1ccc(NC(=O)C2=C(C)NC(C)=C(C(=O)Nc3ccc(OCC)cc3)C2c2ccc(O)c(OC)c2)cc1	> 100	> 100	–	> 100	> 100	> 100	> 100	> 100	–	52	66.7	–	> 100
Cc1ccccc1C1OC(=O)c2ccccc21 (stereo not given)	–	> 100	> 100	> 100	> 100	> 100	> 100	> 100	> 100	–	> 100	> 100	> 100
O=C1[C@@H]2C(c3ccc(Cl)cc3Cl)=NO[C@@H]2C(=O)N1c1ccc(Cc2ccc(N3C(=O)[C@H]4C(c5ccc(Cl)cc5Cl)=NO[C@H]4C3=O)cc2)cc1	> 100	> 100	> 100	52.2	> 100	> 100	> 100	> 100	> 100	> 100	> 100	> 100	–
CC(=O)O[C@]12CCCCC1C1(O)C(O)CCCCC12 (stereo not given in full)	> 100	> 100	> 100	> 100	> 100	> 100	–	> 100	> 100	–	–	> 100	–
O=C(CC(=O)Nc1cccc(Cl)c1)NNCC(=O)Nc1nnc(-c2ccccc2)s1	5.99	> 100	> 100	> 100	> 100	> 100	> 100	> 100	> 100	76.3	86.8	58.6	> 100
Nc1nc(NCCO)c(N=O)c(=O)[nH]1	> 100	> 100	> 100	> 100	> 100	> 100	> 100	> 100	> 100	> 100	> 100	> 100	–
COc1ccc(/C(Cl)=C(/c2ccc(O)cc2)c2ccc(OCCN(C)C)cc2)cc1	27.1	18.9	23.3	22.6	11.7	19.3	31	29.3	23.6	10.3	–	25	36.7
